Patent US20080120039A1, “HORMONE AND DRUG CONCENTRATIONS IN THE PORTAL VEIN AND HEPATIC SINUSOIDS” (Entelos, Inc., priority 2005, published 2008)
Where two headings read alike, the source gives them in different places.

Assays:
[1] = Glucagon infusions with somatostatin; metabolic clearance of glucagon; type: in vivo, human
Description: FIGS. 3A and 3B provide graphs of plasma glucagon concentrations during different glucagon infusion rates in human subjects. FIG. 3A illustrates data from studies that report lower glucagon concentrations during glucagon infusions (Chhibber, et al. Metabolism 49(1):39-46 (2000) and Matsuda, et al. Metabolism 51(9):1111-1119 (2002)) and FIG. 3B illustrates data from studies that report higher glucagon concentrations during glucagon infusions (Nielsen, et al., Diabetes 46(12):2007-2016 (1997) and Andrews, et al., J. Clin. Endocrinol. Metab. 88(1):285-291 (2003)). The equation for the regression line in FIG. 3A is y=0.41x+60.15 with r^2=0.96 and the regression line in FIG. 3B is y=x+69.5 with r=0.97.
Different research groups report considerably different glucagon concentrations in response to plasma glucagon infusions. In FIG. 3A, the regression line yields m=0.00041 min/ml, whereas for the regression line for 3B yields m=0.001 min/ml. These differences lead to considerable differences in predicted portal glucagon concentrations in both fasted and fed conditions, as described below. The MCR for glucagon has been reported to be between 7-14 ml/kg/min; taking the reciprocal of the MCR for a 70 kg individual gives m=0.001-0.002 min/ml. As a result of the variability in the reported measurements for this parameter, two different possibilities are considered in the analyses: one where m=0.00041 and another where m=0.001 min/ml.

[2] = reported; cited from earlier work
[3] = cited from earlier work
[4] = pigs; cited from earlier work
[5] = dogs; cited from earlier work
[6] = sheep; cited from earlier work
[7] = rats; cited from earlier work
[8] = healthy patients; cited from earlier work
[9] = cited from earlier work; remark: listed apart in the source

| Substance | m as reciprocal of reported MCR ([1]; for a 70 kg individual) [min/mL] | m (slope of plasma glucagon concentration versus infusion rate) ([1]; studies with higher glucagon concentrations (FIG. 3B)) | m (slope of plasma glucagon concentration versus infusion rate) ([1]; studies with lower glucagon concentrations (FIG. 3A), about twice the somatostatin rate) | MCR for glucagon [2] [mL/min/kg] | hepatic glucagon extraction in humans ([3]; Felig et al.) | portal glucagon concentration relative to systemic plasma ([3]; reported in the literature) | hepatic glucagon extraction, f [4] | hepatic glucagon extraction, f [5] | hepatic glucagon extraction, f [6] | hepatic glucagon extraction, f [7] | m as reciprocal of reported MCR (for a 70 kg patient) [min/mL] | m (slope of steady-state systemic plasma concentration versus exogenous infusion rate; reciprocal of MCR) (insulin infusions with somatostatin, healthy individuals, studies of FIG. 2, 70 kg individual) | metabolic clearance rate (MCR) of insulin [8] [mL/min/kg] | fractional extraction of insulin by the liver, f ([9]; most estimates) | fractional extraction of insulin by the liver, f ([9]; portal catheterization study and mathematical models based on insulin and c-peptide concentrations) | fractional extraction of insulin by the liver, f ([9]; splanchnic balance studies) |
| --- | --- | --- | --- | --- | --- | --- | --- | --- | --- | --- | --- | --- | --- | --- | --- | --- |
| glucagon | 0.001 to 0.002 | 0.001 min/ml and ≈ 0.001 min/ml | 0.00041 min/ml and ≈ 0.0004 min/ml | 7 to 14 | little or no hepatic glucagon extraction | 1.3-3.0 times higher | ≈ 0.1 | ≈ 0.2 | ≈ 0.07 | ≈ 0.5 |  |  |  |  |  |  |
| insulin |  |  |  |  |  |  |  |  |  |  | 0.0005 to 0.001 | 0.0007 min/ml and approximately 0.0007 min/ml | 13 to 27 | 0.5-0.7 | ≈ 0.5 | 0.7 |
